Assay results: patent EP4332093A1, “SALT CONTAINING PIPERAZINE POLYCYCLIC DERIVATIVE, CRYSTAL FORM THEREOF, PREPARATION METHOD THEREFOR, AND USE THEREOF” (Shanghai Hansoh Biomedical Co., Ltd., priority 2021, dated 2022)
Read-outs that look alike come from different tables or passages of the source.

Tests used:
[1] = Solid stability experiment of crystal forms of salt (5 and 10 days); type: physicochemical
Experimental: About 1 mg of different crystal forms of salt were taken and placed under the conditions of light 5000lx, high temperature 60°C, high humidity 92.5%RH, high temperature and high humidity 50°C 75%RH for 5 days and 10 days. The salt content was determined by HPLC and external standard method, and the change of relevant substances was calculated by chromatographic peak area normalization method.

[2] = target: T1, 5-HT2A receptor (Homo sapiens, UniProt P28223); experiment: Calcium ion mobility in cells stably expressing 5-HT2A receptors (Flp-In-CHO-5HT2A, FLIPR); type: cell-based; parameters: expressed in transfected cells; conditions: Flp-In-CHO-5HT2A stable pool, 5HT stimulation
Experimental: Determination of the effect of the compounds of the present invention on calcium ion mobility in cells stably expressing 5-HT2A receptors
To determine the inhibitory effect of the compounds on 5-HT2A receptor.
• 1) Preparation of the buffer: 1 x HBSS, 20 mM HEPES, 2.5 mM probenecid (probenecid was 400 mM stock in 1 M NaOH), 0.1% BSA. Probenecid and BSA were added fresh on the day of the experiment. Experimental buffers include dye buffer and compound dilution buffer. • 2) Cell culture medium: Ham's F-12K + 10% fetal bovine serum + 600 µg/ml hygromycin B + 1* penicillin-streptomycin. Seeding medium: Ham's F-12K + 10% dialysis serum; Assay buffer: 1 x HBSS + 20 mM HEPES; Cell line: Flp-In-CHO-5HT2A stable pool. • 3) The cells were cultured in the complete medium at 37°C, 5% CO2 to 70%-90% confluency. The cells were digested with TrypLE, seeded to the 384-well assay plate at a density of 1 × 10^4 cells/well, and incubated for 16 to 24 hours (at least overnight). • 4) 20X Component A was thawed to room temperature, diluted to 2X working concentration (containing 5mM Probenecid) with the assay buffer, and placed at room temperature for later use. • 5) The cell culture plate was taken out and left to stand at room temperature for 10 min. […] 10 µl of diluted 5HT was add to each experimental well using FLIPR Tetra, and the values were read.
The calcium signal values were determined by FLIPR. The calculated output for each sampling time point in the experiment was the ratio of the 340/510 nm wavelength signals to 380/510 nm wavelength signals. The maximum minus minimum calculation was derived from the ratio signal curve. The percent inhibition rate and ten-point concentration data were fitted to the parametric nonlinear logistic equation by using GraphPad prism to calculate the IC50 values of the compound.

[3] = target: T2, D3 receptor (Homo sapiens, UniProt P35462); experiment: cAMP content in cells stably expressing D3 receptors (CHO-D3, forskolin, HTRF); type: cell-based
T2 construct: expressed in transfected cells
Experimental: Determination of the effect of the compounds of the present invention on cAMP content in cells stably expressing D3 receptors
To determine the activation effect of the compounds on D3 receptor.
• 1. Preparation of the buffer: 1* HBSS + 20mM HEPES + 0.1% BSA + 500 µM IBMX. Complete medium: Ham's F12K + 10% fetal bovine serum +1* penicillin-streptomycin + 400 µg/mL G418. • 2. CHO-D3 cells were cultured in the complete medium at 37°C, 5% CO2. After TrypLE digestion, the cells were resuspended in the experimental buffer, and seeded into a 384-well cell culture plate at a seeding density of 8000 cells per well. • 3. The experimental buffer (1*HBSS, 0.1% BSA, 20 mM HEPES and 500 µM IBMX) was prepared. The compound was diluted with the buffer. 2.5 µL of the compound solution was added to each well, and the plate was incubated at 37°C for 10 minutes. The forskolin was diluted to 8 µM (8*) with the experimental buffer. 2.5 µL of the diluted 8* forskolin was added, and the plate was incubated at 37°C for 30 minutes. cAMP-d2 and Anti-cAMP-Eu^3+ were thawed, and diluted by 20-fold with the lysis buffer. 10 µL of cAMP-d2 was added to the experimental well, followed by the addition of 10 µL of Anti-cAMP-Eu^3+. The reaction plate was centrifuged at 200 g for 30 s at room temperature, and left to stand at 25°C for 1 h. Data was collected using Envision.

[4] = Pharmacokinetic assay in Balb/c mice (plasma and brain tissue); type: in vivo; conditions: male, mouse, po, p.o. 5 mg/kg; for AUC(0-t): read-out: Area under curve AUC0-t; for Tmax: read-out: Peak time tmax; for Cmax: read-out: Plasma concentration Cmax
Experimental: Balb/c mice were used as test animals. The pharmacokinetic behavior in mouse body (plasma and brain tissue) of the compounds of Examples of the present invention was studied at an oral administration dose of 5 mg/kg.
Compounds of the Examples of the present invention, prepared by the applicant.
Male Balb/c mice (12 mice per group), purchased from Shanghai Jiesijie Laboratory Animal Co., LTD, with Certificate No.: SCXK (Shanghai) 2013-0006 N0.311620400001794.
The test compound was dissolved in 0.5% CMC-Na (1% Tween80) by sonication to formulate a clear solution or homogeneous suspension.
After an overnight fast, male Balb/c mice (12 mice per group) were administered p.o. with the test compound at an administration dose of 5 mg/kg and an administration volume of 10 mL/kg.
0.2 mL of blood was taken from the heart of the mouse before administration and at 1, 2, 4, 8 and 24 hours after administration, and the mice were sacrificed with CO2. The samples were stored in EDTA-K2 tubes, and centrifuged for 6 minutes at 4°C, 6000 rpm to separate the plasma. The plasma samples were stored at -80°C. Whole brain tissue was taken out, weighed, placed in a 2 mL centrifuge tube, and stored at -80°C.
• 1) 160 µL of acetonitrile was added to 40 µL of the plasma sample for precipitation, and then the mixture was centrifuged for 5 to 20 minutes at 3500 × g. • 2) 90 µL of acetonitrile containing internal standard (100 ng/mL) was added to 30 µL of the plasma and brain homogenate sample for precipitation, and then the mixture was centrifuged for 8 minutes at 13000 rpm. • 3) 70 µL of water was added to 70 µL of the treated supernatant and mixed by vortex for 10 minutes. 20 µL of the supernatant was taken to analyze the concentration of the test compound by LC/MS/MS. LC/MS/MS analytical instrument: AB Sciex API 4000 Qtrap.
• Liquid chromatography condition: Shimadzu LC-20AD pump • Chromatographic column: Agilent ZORBAX XDB-C18 (50×2.1 mm, 3.5 µm); Mobile phase: Eluent A was 0.1% formic acid in water, and Eluent B was acetonitrile • Flow rate: 0.4 mL/min • Elution time: 0-4.0 minutes, the eluent is as follows:
The main parameters of pharmacokinetics were calculated by WinNonlin 6.1. Table 17: Experimental results of pharmacokinetic assay in mice

[5] = target: T1, 5-HT2A receptor; experiment: Radioligand binding assay, 5-HT2A receptor ([3H]-Ketanserin); parameters: purchased PerkinElmer; conditions: Human 5-HT2A Receptor membrane, [3H]-Ketanserin 2 nM; read-out: 5HT-2A Binding IC50
Experimental: Determination of the binding ability of the compounds of the
present invention to 5-HT2A receptor
The objective of this test example is to determine the affinity of the compounds for 5-HT2A receptor.
Experimental buffer: 50 mM Tris-HCl pH 7.4, 4 mM CaCl2; washing liquor: 50 mM Tris-HCl pH 7.4, stored at 4°C; 0.5% PEI solution: 0.5 g PEI dissolved in 100 mL ddH2O, 4°C storage of spare.
5 µL of the test compounds (0.005 nM to 100 nM, 10 concentrations in total) and 100 µL of buffer were added to a 96-well assay plate. 1.5 µL of cell membrane and 300 µL of buffer were added to each well, and the plate was shaken at 600 rpm for 5 minutes. 100 µL of a mixed solution of buffer and [^3H]-Ketanserin (final concentration of 2 nM) was added to the reaction system per well, and the plate was shaken at 600 rpm for 5 minutes and incubated at 27°C for 30 min. The […]-96 GF/B filter plate pre-incubated with 0.5% PEI for 1 h was washed twice with the buffer (1 mL/well). The cell membrane suspension was added to the […]-96 GF/B filter plate, washed 4 times, and incubated at 55°C for 10 min. 40 µL of ULTIMA GOLD was added to each well, and liquid scintillation counting was carried out.
(§1) The CPM (Counts per minute) values were determined by TopCount. […] The 10 concentrations of the compound were from 100 nM to 0.005 nM after 3-fold dilution of the reaction system. The percent inhibition rate and ten-point concentration data were fitted to the parametric nonlinear logistic equation by using GraphPad prism to calculate the IC50 values of the compound.

[6] = target: T3, dopamine D3 receptor (Homo sapiens, UniProt P35462); experiment: Radioligand binding assay, dopamine D3 receptor ([3H]-methylspiperone); conditions: Human Dopamine D3 Receptor membrane, [3H]-methylspiperone 0.5 nM
T3 construct: purchased PerkinElmer ES-173-M400UA
Experimental: Determination of the binding ability of the compounds of the present invention to dopamine D3 receptor
The objective of this test example is to determine the affinity of the compounds for dopamine D3 receptor.
Experimental buffer: 50 mM Tris-HCl pH 7.4, 10 mm MgCl2; washing liquor: 50 mM Tris-HCl pH 7.4, stored at 4°C; 0.5% PEI solution: 0.5 g PEI dissolved in 100 mL ddH2O, 4°C storage of spare.
5 µL of the test compounds (0.005 nM to 100 nM, 10 concentrations in total) and 100 µL of buffer were added to a 96-well assay plate. 1 µL of cell membrane and 300 µL of buffer were added to each well, and the plate was shaken at 600 rpm for 5 minutes. 100 µL of a mixed solution of buffer and [^3H]-methylspiperone (final concentration of 0.5 nM) was added to the reaction system per well, and the plate was shaken at 600 rpm for 5 minutes and incubated at 27°C for 30 min. The UNIFII,TER-96 GF/B filter plate pre-incubated with 0.5% PEI for 1 h was washed twice with the buffer (1 mL/well). The cell membrane suspension was added to the […]-96 GF/B filter plate, washed 4 times, and incubated at 55°C for 10 min. 40 µL of ULTIMA GOLD was added to each well, and liquid scintillation counting was carried out.
as §1

[7] = High humidity (92.5% RH), 5 Days
[8] = High humidity (92.5% RH), 10 Days
[9] = High temperature (60°C), 5 Days
[10] = High temperature (60°C), 10 Days
[11] = High temperature and high humidity (50°C 75%RH), 5 Days
[12] = High temperature and high humidity (50°C 75%RH), 10 Days

T1 sequence (P28223 whole entry): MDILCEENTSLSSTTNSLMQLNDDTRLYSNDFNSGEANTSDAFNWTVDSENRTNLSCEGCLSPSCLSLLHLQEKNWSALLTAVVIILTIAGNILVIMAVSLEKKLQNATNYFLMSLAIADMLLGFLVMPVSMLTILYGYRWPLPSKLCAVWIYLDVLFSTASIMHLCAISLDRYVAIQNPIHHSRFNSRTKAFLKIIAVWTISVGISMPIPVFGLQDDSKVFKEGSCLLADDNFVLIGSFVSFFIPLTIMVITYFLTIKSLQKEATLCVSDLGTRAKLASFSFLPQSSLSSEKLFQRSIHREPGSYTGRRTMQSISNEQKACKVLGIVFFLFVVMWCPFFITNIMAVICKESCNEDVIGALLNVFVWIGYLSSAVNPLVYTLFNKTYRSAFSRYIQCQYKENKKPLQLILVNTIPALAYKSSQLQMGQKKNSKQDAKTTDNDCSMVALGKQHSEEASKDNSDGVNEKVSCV
T2 sequence (P35462 whole entry): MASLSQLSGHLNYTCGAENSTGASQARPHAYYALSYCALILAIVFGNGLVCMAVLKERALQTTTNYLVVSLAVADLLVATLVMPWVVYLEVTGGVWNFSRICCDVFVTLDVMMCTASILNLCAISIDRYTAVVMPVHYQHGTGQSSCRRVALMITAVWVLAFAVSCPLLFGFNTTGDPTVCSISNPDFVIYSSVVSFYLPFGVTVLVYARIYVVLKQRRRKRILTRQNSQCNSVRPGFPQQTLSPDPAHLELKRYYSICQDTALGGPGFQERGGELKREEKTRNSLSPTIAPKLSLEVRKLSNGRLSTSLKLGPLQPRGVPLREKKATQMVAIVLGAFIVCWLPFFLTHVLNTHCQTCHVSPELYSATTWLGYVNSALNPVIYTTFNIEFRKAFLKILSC
T3 sequence (P35462 whole entry): as above

## O=C(N[C@H]1C[C@H](CCN2CCN(c3cccc(Cl)c3Cl)CC2)C1)c1ncco1 [Crystal form A of hydrochl oride]
[1]; [7]
  Maximum single impurity increase%: 0.06%
  Total impurity increase%: 0.06%
[1]; [8]
  Maximum single impurity increase%: <0.02%
  Total impurity increase%: <0.02%
[1]; [9]
  Maximum single impurity increase%: <0.02%
  Total impurity increase%: <0.02%
[1]; [10]
  Maximum single impurity increase%: <0.02%
  Total impurity increase%: 0.03%
[1]; [11]
  Maximum single impurity increase%: <0.02%
  Total impurity increase%: <0.02%
[1]; [12]
  Maximum single impurity increase%: <0.02%
  Total impurity increase%: <0.02%
[1]; Light (5000lx), 5 Days
  Maximum single impurity increase%: <0.02%
  Total impurity increase%: <0.02%
[1]; Light (5000lx), 10 Days
  Maximum single impurity increase%: <0.02%
  Total impurity increase%: <0.02%

## O=C(N[C@H]1C[C@H](CCN2CCN(c3cccc(Cl)c3Cl)CC2)C1)c1ncco1 [Crystal form B of p-toluene sulfonate]
[1]; [7]
  Maximum single impurity increase%: <0.02%
  Total impurity increase%: <0.02%
[1]; [10]
  Total impurity increase%: <0.02%
[1]; Light (5000lx), 5 Days
  Maximum single impurity increase%: 0.13%
  Total impurity increase%: 0.03%
[1]; Light (5000lx), 10 Days
  Maximum single impurity increase%: 0.13%
  Total impurity increase%: 0.19%

## O=C(NC1CC(CCN2CCN(c3cccc(Cl)c3Cl)CC2)C1)c1nccs1 (centres unmarked) [Example 7, N-(3-(2-(4-(2,3-Dichlorophenyl)piperazin-1-yl)ethyl)cyclobutyl)thiazole-2-carboxamide]
[2]
  IC50: 6.44 nM
[3]
  EC50: 2.8 nM
[4]; Brain
  AUC(0-t): 2080 ng·h/mL
  Tmax: 1 h
  Cmax: 569 ng/mL
[4]; Plasma
  AUC(0-t): 503 ng·h/mL
  Tmax: 0.5 h
  Cmax: 254 ng/mL
[4]; Plasma, read-out: Area under curve AUC0-∞
  AUC(0-inf): 541 ng·h/mL
[4]; Plasma, read-out: Average residence time MRT
  MRT: 2.8 h
[4]; Plasma, read-out: Half life t1/2 (converted)
  half-life: 2.1 h

## O=S(=O)(NC1CC(CCN2CCN(c3cccc(Cl)c3Cl)CC2)C1)C1CC1 (centres unmarked) [Example 11, N-(3-(2-(4-(2,3-Dichlorophenyl)piperazin-1-yl)ethyl)cyclobutyl)cyclopropanesulfon amide]
[5]
  IC50: 44 nM
[6]
  IC50: 0.62 nM

## O=C(N[C@H]1C[C@H](CCN2CCN(c3cccc(Cl)c3Cl)CC2)C1)c1ncco1 [crystal form B of p-toluenesulfonate]
[1]; light conditions (5000lx)
  crystal form stability (single impurity): single impurity increases significantly
[1]; other conditions (60°C, 92.5% RH, 50°C 75% RH)
  crystal form stability: stable
